Reference: ChEMBL document CHEMBL4616626, “Design, synthesis and biological evaluation of HIV-1 protease inhibitors with morpholine derivatives as P2 ligands in combination with cyclopropyl as P1' ligand” (Bioorg Med Chem Lett, 2020)

Molecular target: Human immunodeficiency virus type 1 protease (Human immunodeficiency virus 1, UniProt Q72874)
Test: Inhibition of HIV1 protease by FRET assay

Compound	IC50 [nM]
C[C@@H]1CN(CC(=O)N[C@@H](Cc2ccccc2)[C@H](O)CN(C2CC2)S(=O)(=O)c2ccc(N)cc2)CCO1	1530
COc1ccc(S(=O)(=O)N(C[C@@H](O)[C@H](Cc2ccccc2)NC(=O)CN2CCO[C@H](C)C2)C2CC2)cc1	190
O=C(CN[C@@H](Cc1ccccc1)[C@H](O)CN(C1CC1)S(=O)(=O)c1ccc([N+](=O)[O-])cc1)N1CCOCC1	> 10000
Nc1ccc(S(=O)(=O)N(C[C@@H](O)[C@H](Cc2ccccc2)NCC(=O)N2CCOCC2)C2CC2)cc1	1150
O=S(=O)(c1ccc(C(F)(F)F)cc1)N(C[C@@H](O)[C@H](Cc1ccccc1)NCCN1CCOCC1)C1CC1	1690
COc1ccc(S(=O)(=O)N(C[C@@H](O)[C@H](Cc2ccccc2)NC(=O)N2CCOCC2)C2CC2)cc1	260
O=C(N[C@@H](Cc1ccccc1)[C@H](O)CN(C1CC1)S(=O)(=O)c1ccc([N+](=O)[O-])cc1)OCCN1CCOCC1	80
C[C@@H]1CN(CC(=O)N[C@@H](Cc2ccccc2)[C@H](O)CN(C2CC2)S(=O)(=O)c2ccc(C(F)(F)F)cc2)CCO1	2990
COc1ccc(S(=O)(=O)N(C[C@@H](O)[C@H](Cc2ccccc2)NCC(=O)N2CCOCC2)C2CC2)cc1	180
O=C(CN1CCOCC1)N[C@@H](Cc1ccccc1)[C@H](O)CN(C1CC1)S(=O)(=O)c1ccc([N+](=O)[O-])cc1	5430
C[C@H]1CN(CC(=O)N[C@@H](Cc2ccccc2)[C@H](O)CN(C2CC2)S(=O)(=O)c2ccc(C(F)(F)F)cc2)CCO1	400
Nc1ccc(S(=O)(=O)N(C[C@@H](O)[C@H](Cc2ccccc2)NC(=O)N2CCOCC2)C2CC2)cc1	640
C[C@H]1CN(CC(=O)N[C@@H](Cc2ccccc2)[C@H](O)CN(C2CC2)S(=O)(=O)c2ccc(N)cc2)CCO1	1340
O=C(CN1CCOCC1)N[C@@H](Cc1ccccc1)[C@H](O)CN(C1CC1)S(=O)(=O)c1ccc(C(F)(F)F)cc1	400
C[C@H]1CN(CC(=O)N[C@@H](Cc2ccccc2)[C@H](O)CN(C2CC2)S(=O)(=O)c2ccc([N+](=O)[O-])cc2)CCO1	580
Nc1ccc(S(=O)(=O)N(C[C@@H](O)[C@H](Cc2ccccc2)NC(=O)OCCN2CCOCC2)C2CC2)cc1	61
COc1ccc(S(=O)(=O)N(C[C@@H](O)[C@H](Cc2ccccc2)NC(=O)CN2CCO[C@@H](C)C2)C2CC2)cc1	1270
O=[N+]([O-])c1ccc(S(=O)(=O)N(C[C@@H](O)[C@H](Cc2ccccc2)NCCN2CCOCC2)C2CC2)cc1	610
O=C(N[C@@H](Cc1ccccc1)[C@H](O)CN(C1CC1)S(=O)(=O)c1ccc(C(F)(F)F)cc1)OCCN1CCOCC1	120
O=C(CN[C@@H](Cc1ccccc1)[C@H](O)CN(C1CC1)S(=O)(=O)c1ccc(C(F)(F)F)cc1)N1CCOCC1	1260
COc1ccc(S(=O)(=O)N(C[C@@H](O)[C@H](Cc2ccccc2)NCCN2CCOCC2)C2CC2)cc1	170
COc1ccc(S(=O)(=O)N(C[C@@H](O)[C@H](Cc2ccccc2)NC(=O)OCCN2CCOCC2)C2CC2)cc1	53 to 54
COc1ccc(S(=O)(=O)N(C[C@@H](O)[C@H](Cc2ccccc2)NC(=O)CN2CCOCC2)C2CC2)cc1	1040
O=C(N[C@@H](Cc1ccccc1)[C@H](O)CN(C1CC1)S(=O)(=O)c1ccc([N+](=O)[O-])cc1)N1CCOCC1	790
Nc1ccc(S(=O)(=O)N(C[C@@H](O)[C@H](Cc2ccccc2)NC(=O)CN2CCOCC2)C2CC2)cc1	> 10000
O=C(N[C@@H](Cc1ccccc1)[C@H](O)CN(C1CC1)S(=O)(=O)c1ccc(C(F)(F)F)cc1)N1CCOCC1	47
Nc1ccc(S(=O)(=O)N(C[C@@H](O)[C@H](Cc2ccccc2)NCCN2CCOCC2)C2CC2)cc1	940
C[C@@H]1CN(CC(=O)N[C@@H](Cc2ccccc2)[C@H](O)CN(C2CC2)S(=O)(=O)c2ccc([N+](=O)[O-])cc2)CCO1	930
